Paper PMC7181047, “Flame-Made Calcium Phosphate Nanoparticles with High Drug Loading for Delivery of Biologics” (Molecules, 2020)

What was measured:
Proteinase K [1] = target: T1, Proteinase K (Parengyodontium album, UniProt P06873); assay: Proteinase K degradation assay (SDS-PAGE); type: in vitro ADME; settings: 0.5 µg LL-37, 20 ng Proteinase K, 20 mM Tris-HCl pH 8.0, 37 °C, up to 240 min, at least three repetitions
T1 construct: purchased Qiagen, Hilden, Germany
Procedure: A total of 0.5 µg LL-37, either loaded on nanoparticles or not, was subjected to Proteinase K degradation assay. Input samples were taken without Proteinase K added, as a positive control and is considered to be “100%” when calculating protein amounts. LL-37 was incubated in 20 mM Tris-HCl, pH 8.0 with a total of 20 ng Proteinase K (Qiagen, Hilden, Germany) added to the reaction. Samples were incubated at 37 °C until given timepoints where the reaction was stopped by the addition of SDS loading buffer (at a final concentration of 50 mM Tris-HCl pH 6.8, 2% SDS, 10% glycerol, 1% β-mercaptoethanol, 12.5 mM EDTA and 0.02% Bromophenol blue) and samples were then immediately boiled for 10 min at 98 °C.
Samples were loaded onto a NuPAGE 4%–12% Bis-Tris gel (Invitrogen, Carlsbad, CA, USA) and run in MES-buffer (Invitrogen) at 40 mA/gel. Since LL-37 is a small peptide, samples were run only halfway through the gel. The gels where then washed in Mill-Q water 3 times, 10 min before immersion in Imperial Protein Stain (Thermo Scientific) for 1 h. After that Mill-Q water was used to destain the gels before image acquisition on GelDoc XRS+ (Bio-Rad, Hercules, CA, USA). Bands were quantified using Image Studio Lite v. 5.2 (LI-COR Biosciences, Lincoln, NE, USA).

Proteinase K [2] = target: T1, Proteinase K; design: method as in PMID 10417311; settings: after 2 h; cited from earlier work
Procedure: In order to assess the enzymatic degradation of LL-37 and the protective potential from the CaPS nanocarriers, a degradation assay utilizing Proteinase K was performed (Sodium Dodecyl Sulfate–Polyacrylamide Gel Electrophoresis, SDS-PAGE).

T1 sequence (P06873 106-384): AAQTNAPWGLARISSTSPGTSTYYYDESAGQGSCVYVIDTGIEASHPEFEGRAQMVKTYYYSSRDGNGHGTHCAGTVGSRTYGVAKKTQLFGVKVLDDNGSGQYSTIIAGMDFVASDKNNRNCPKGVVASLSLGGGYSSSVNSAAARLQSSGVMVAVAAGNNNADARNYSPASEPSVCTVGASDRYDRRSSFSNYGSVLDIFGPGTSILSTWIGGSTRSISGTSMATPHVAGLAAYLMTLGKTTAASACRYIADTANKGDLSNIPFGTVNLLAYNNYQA

CC[C@H](C)[C@H](NC(=O)[C@H](CCCCN)NC(=O)[C@H](CCC(=O)O)NC(=O)[C@H](CCCCN)NC(=O)[C@H](CO)NC(=O)[C@H](CCCCN)NC(=O)[C@H](CCCNC(=N)N)NC(=O)[C@H](Cc1ccccc1)NC(=O)[C@H](Cc1ccccc1)NC(=O)[C@H](CC(=O)O)NC(=O)CNC(=O)[C@H](CC(C)C)NC(=O)[C@@H](N)CC(C)C)C(=O)NCC(=O)N[C@@H](CCCCN)C(=O)N[C@@H](CCC(=O)O)C(=O)N[C@@H](Cc1ccccc1)C(=O)N[C@@H](CCCCN)C(=O)N[C@@H](CCCNC(=N)N)C(=O)N[C@H](C(=O)N[C@H](C(=O)N[C@@H](CCC(N)=O)C(=O)N[C@@H](CCCNC(=N)N)C(=O)N[C@H](C(=O)N[C@@H](CCCCN)C(=O)N[C@@H](CC(=O)O)C(=O)N[C@@H](Cc1ccccc1)C(=O)N[C@@H](CC(C)C)C(=O)N[C@@H](CCCNC(=N)N)C(=O)N[C@@H](CC(N)=O)C(=O)N[C@@H](CC(C)C)C(=O)N[C@H](C(=O)N1CCC[C@H]1C(=O)N[C@@H](CCCNC(=N)N)C(=O)N[C@H](C(=O)N[C@@H](CCC(=O)O)C(=O)N[C@@H](CO)C(=O)O)[C@@H](C)O)C(C)C)[C@@H](C)CC)C(C)C)[C@@H](C)CC [LL-37]
incubation time after which the LL-37 band (4.5 kDa) starts fading (Proteinase K [1]): 20 min | uncleaved peptide (Proteinase K [2]): ~ 5%
